Experimental data from patent US8865763B2, “Methods and compositions for altering cell function” (Alltech, Inc., priority 2005, dated 2014).
Each block holds one compound with its values, some of them ahead of it.

Columns and labels:
[1] = system: LIM homeobox protein 8 gene (Lhx8); test: Microarray gene expression, mouse intestine: Lhx8; type: in vivo; conditions: diet 1 ppm Se, vs selenium deficient
From the text: (§1) Animal Care. Male C57BL/6J mice were housed singly and started on the experimental diets described below immediately after weaning (21 days of age). The mice were maintained in the Shared Aging Rodent Facility at the William S. Middleton Memorial Veterans Administration Medical Center (Madison, Wis.). Temperature and humidity were maintained at constant levels. Room light was controlled to provide 12-hr cycles of light and dark.
(§2) Experimental diets were created by Harlan Teklad (Madison, Wis.). Selenium content of the diets was determined by Covance Inc. (Madison, Wis.). Five (5) animals were included in each of the following treatment groups: a diet deficient in selenium (SD); a diet supplemented with selenomethionine (SM, obtained from Sigma, St. Louis, Mo.) such that the final selenium content of the diet was one (1) part per million; a diet supplemented with sodium selenite (SS, Sigma) such that the final concentration of selenium in this diet was one (1) part per million; or a diet supplemented with the yeast selenium SEL-PLEX (SP, Alltech, Lexington, Ky.), such that the final concentration of selenium in this diet was one (1) part per million. SEL-PLEX. […]
(§3) Tissue sample preparation and microarray analysis. […] For intestinal expression studies, the intestine was flushed twice with saline solution and small intestine was measured and divided in three equal segments. […]

[2] = system: selenoprotein N1 (Sepn1); test: Microarray gene expression, mouse intestine: Sepn1; type: in vivo; conditions: diet 1 ppm Se, vs selenium deficient
From the text: as §1, §2, §3

[3] = system: Selenoprotein W (SelW); test: Microarray gene expression, mouse intestine: SelW; type: in vivo; conditions: diet 1 ppm Se, vs selenium deficient
From the text: as §1, §2, §3

[4] = system: CORS-26; test: Microarray gene expression, mouse cerebral cortex: CORS-26; type: in vivo; conditions: diet 1 ppm Se, vs selenium deficient
From the text: as §1, §2, §3

[5] = system: Prohibitin (Phb); test: Microarray gene expression, mouse intestine: Phb; type: in vivo; conditions: diet 1 ppm Se, vs selenium deficient
From the text: as §1, §2, §3

[6] = system: Neurogenin 3 (Neurog3); test: Microarray gene expression, mouse intestine: Neurog3; type: in vivo; conditions: diet 1 ppm Se, vs selenium deficient
From the text: as §1, §2, §3

[7] = system: Complement component 1, q subcomponent, gamma polypeptide, C1qg; test: Microarray gene expression, mouse cerebral cortex: C1qg; type: in vivo; conditions: diet 1 ppm Se, vs selenium deficient, * p<0.01
From the text: as §1, §2, §3

[8] = system: Glyoxalase 1 (Glo1); test: Microarray gene expression, mouse intestine: Glo1; type: in vivo; conditions: diet 1 ppm Se, vs selenium deficient
From the text: as §1, §2, §3

[9] = system: Glutathione Peroxidase 3; test: Microarray gene expression, mouse intestine: Glutathione Peroxidase 3; type: in vivo; conditions: diet 1 ppm Se, vs selenium deficient, all p < 0.01
From the text: as §1, §2, §3

[10] = Body weight of mice on selenium diets; type: in vivo, mouse; conditions: mouse, in vivo
From the text: as §1
Experimental diets were created by Harlan Teklad (Madison, Wis.). Selenium content of the diets was determined by Covance Inc. (Madison, Wis.). […]
Thus, it was an object of the present invention to determine whether compositions and methods of the present invention could alter the expression levels (e.g., mRNA levels) of various genes. One group of genes analyzed were genes classically associated with selenium. As described above, the expression levels of genes were analyzed between mice with and without dietary selenium, or, between mice fed different sources of selenium) (See, e.g., Table 1, below).

[11] = system: Growth arrest and DNA-damage-inducible 45 gamma (Gadd45g); test: Microarray gene expression, mouse intestine: Gadd45g; type: in vivo; conditions: diet 1 ppm Se, vs selenium deficient, negative = down
From the text: as §1
Experimental diets were created by Harlan Teklad (Madison, Wis.). Selenium content of the diets was determined by Covance Inc. (Madison, Wis.). Five (5) animals were included in each of the following treatment groups: a diet deficient in selenium (SD); a diet supplemented with selenomethionine (SM, obtained from Sigma, St. Louis, Mo.) such that the final selenium content of the diet was one (1) part per million; a diet supplemented with sodium selenite (SS, Sigma) such that the final concentration of selenium in this diet was one (1) part per million; or a diet supplemented with the yeast selenium SEL-PLEX (SP, Alltech, Lexington, Ky.), such that the final concentration of selenium in this diet was one (1) part per million. SEL-PLEX. Mice were provided with water and their respective diet ad libitum for 100 days. Diets were stored at the dark at 4° C. and fresh diet was added to feeder twice weekly.
Tissue sample preparation and microarray analysis. Mice were killed at 100 days of age by cervical dislocation. For intestinal expression studies, the intestine was flushed twice with saline solution and small intestine was measured and divided in three equal segments. A 3-cm region of the middle segment of the small intestine corresponding to the jejunum (˜300 mg of tissue) was cut and rinsed again with physiological saline to completely remove contents, flash frozen in liquid nitrogen and stored at −80° C. For brain (e.g., cerebral cortex) studies, the cerebral cortex was separated from the surrounding brain tissue and was flash frozen in liquid nitrogen and stored at −80° C. […]

[12] = system: sprouty homolog 2 gene (Spry2); test: Microarray gene expression, mouse intestine: Spry2; type: in vivo; conditions: diet 1 ppm Se, vs Se-deficient controls
From the text: as §1, §2, §3

[13] = system: type II iodothyronine deiodinase (Dio2); test: Microarray gene expression, mouse intestine: Dio2; type: in vivo; conditions: diet 1 ppm Se, vs selenium deficient
From the text: as §1, §2, §3

[14] = system: Glutathione Peroxidase 1; test: Microarray gene expression, mouse intestine: Glutathione Peroxidase 1; type: in vivo; conditions: diet 1 ppm Se, vs selenium deficient, all p < 0.01
From the text: as §1, §2, §3

[15] = system: transforming growth factor beta 2 (TGF-β2); test: Microarray gene expression, mouse intestine: TGF-β2; type: in vivo; conditions: diet 1 ppm Se, vs controls
From the text: as §1, §2, §3

[16] = system: Type 1 iodothyronine deiodinase; test: Microarray gene expression, mouse intestine: Type 1 iodothyronine deiodinase; type: in vivo; conditions: diet 1 ppm Se, vs selenium deficient
From the text: as §1, §2, §3

[17] = system: SelR (Selenoprotein X1); test: Microarray gene expression, mouse intestine: SelR; type: in vivo; conditions: diet 1 ppm Se, vs selenium deficient
From the text: as §1, §2, §3

[18] = Hen Brain Se Concentration; type: in vivo, White-Egg-Laying Hens; conditions: hens; diet with 0.3 ppm Se from the source
Experimental: (§4) Compositions and methods of the present invention were utilized to evaluate the effects of various Se sources on the accumulation of brain Se concentrations in hens and their offspring.
(§5) The study was conducted at the Coldstream Research Facility from Jun. 28, 2004 until Nov. 16, 2004. Six dietary treatments were fed to a total of 48 hens (r=8) that were bred on three consecutive days starting on Sep. 16, 2004.
(§6) • Basal (no added Se) • Selenite (0.3 ppm) • Sel Plex (0.3 ppm) • Tepsel (0.3 ppm) • Se 2000 (0.3 ppm) • Selenosource (0.3 ppm)
(§7) Chicks that hatched were divided into two groups. Half of the chicks were killed for brain collection and the remaining chicks were allowed to grow for 14 days on a Se deficient diet, at which time they were terminated for brain collection. Hen brains were analyzed for Se content individually, whereas the chick brains were homogenized and pooled because of small sample size.
(§8) Brain Se concentrations for the hens and chicks are shown in Tables 4 and 5, below, respectively. The Selenosource value represents only one hen brain analyzed and therefore was not included in the statistical analysis.

[19] = Chick Brain Se Concentration at day 14; type: in vivo, chicks (offspring of treated hens); conditions: offspring of hens fed 0.3 ppm Se; chicks 14 days on Se deficient diet; pooled brains
Experimental: as §4, §5, §6, §7, §8

- expression of Glo1, fold reduction [8]: not significantly affected
SMILES: C[Se]CC[C@H](N)C(=O)O [SeM, selenomethionine]
- expression of Lhx8, fold upregulated [1]: not significantly different
- expression of selenoprotein N1 (Sepn1), fold increased [2]: not significantly affected
- expression of Selenoprotein W (SelW), fold upregulated [3]: not significantly altered
- expression of CORS-26, fold reduction [4]: no alteration in expression levels
- expression of Prohibitin (Phb), fold upregulated [5]: 1.6 fold
- Neurog3 expression, fold upregulated [6]: no significant alteration
- FC (fold change) expression of C1qg [7]: 1.0 fold
- fold change in expression of Glutathione Peroxidase 3 [9]: 4.6 fold
- body weights of mice [10]: No significant differences
- FC (fold change) expression of Gadd45g [11]: decreased expression
- FC (fold change) expression of Gadd45g ([11]; listed as SM): −1.5 fold
- Spry2 gene expression, fold reduction [12]: no alteration in expression levels
- expression of Dio2, fold down-regulation [13]: no ability to alter the expression levels
- fold change in expression of Glutathione Peroxidase 1 [14]: 4.9 fold
- expression of TGF-β2 (printed TGF-β), fold upregulated [15]: not altered
- fold increase of expression level of Type 1 iodothyronine deiodinase [16]: 2.0 fold
- expression of SelR, fold upregulated [17]: not significantly affected

SMILES: O=[Se](O)O [Selenite]
- Hen Brain Se Concentration [18]: 850 ppb
- Chick Brain Se Concentration at day 14 [19]: 784 ppb
